According to ChEMBL document CHEMBL5625243, “Computational methods to analyze and predict the binding mode of inhibitors targeting both human and mushroom tyrosinase” (Eur J Med Chem, 2023):
Active and inactive are the calls of the source. The rule behind the calls is not given here.

Legend:
Tyrosinase [1] = target: T1, Tyrosinase (Homo sapiens, UniProt P14679); assay: Inhibition of human tyrosinase using L-DOPA as substrate by spectrophotometer analysis
T1 sequence (P14679 whole entry): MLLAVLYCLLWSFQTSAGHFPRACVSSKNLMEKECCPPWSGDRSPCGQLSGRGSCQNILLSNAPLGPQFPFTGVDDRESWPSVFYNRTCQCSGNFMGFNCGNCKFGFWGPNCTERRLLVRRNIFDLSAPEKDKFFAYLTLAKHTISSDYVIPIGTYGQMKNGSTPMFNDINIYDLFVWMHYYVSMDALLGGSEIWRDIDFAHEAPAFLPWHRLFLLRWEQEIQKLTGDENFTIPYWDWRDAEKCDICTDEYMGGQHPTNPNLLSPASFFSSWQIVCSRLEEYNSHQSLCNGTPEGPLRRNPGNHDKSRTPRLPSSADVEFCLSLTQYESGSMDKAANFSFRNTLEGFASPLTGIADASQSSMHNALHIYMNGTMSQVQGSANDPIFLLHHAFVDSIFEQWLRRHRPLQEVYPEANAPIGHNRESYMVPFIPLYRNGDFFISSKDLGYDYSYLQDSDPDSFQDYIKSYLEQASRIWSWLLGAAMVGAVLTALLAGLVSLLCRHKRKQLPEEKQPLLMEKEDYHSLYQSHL

[2] = target: T2, Tyrosinase (Homo sapiens) (UniProt P14679); assay: Binding affinity to human Tyrosinase assessed as gibbs free energy change by MM-GBSA method
T2 sequence (whole entry): T1 sequence (P14679 whole entry)

[3] = target: Mushroom tyrosinase (Agaricus bisporus) (UniProt O42713+Q00024+C7FF04+C7FF05); assay: Binding affinity to mushroom tyrosinase assessed as gibbs free energy change by MM-GBSA method; format: protein assay
Mushroom tyrosinase [4] = target: T3, Mushroom tyrosinase (Agaricus bisporus, UniProt O42713+Q00024+C7FF04+C7FF05); assay: Inhibition of mushroom tyrosinase using L-DOPA as substrate by spectrophotometer analysis; format: protein assay
Tyrosinase [5] = target: T1, Tyrosinase; assay: Binding affinity to human tyrosinase using l-DOPA as substrate assessed as inhibition constant by Michaelis-Menten plot analysis
Mushroom tyrosinase [6] = target: T3, Mushroom tyrosinase; assay: Inhibition of mushroom tyrosinase using L-DOPA as substrate; format: protein assay
[7] = target: T2, Tyrosinase (Homo sapiens); assay: Competitive inhibition of human tyrosinase using L-DOPA substrate upto 2.08 uM by Lineweaver-Burk plot analysis

An IC50 (Tyrosinase [1]) of 1100 µM, a deltaG [2] of 0 kcal/mol and a deltaG [3] of -4.54 kcal/mol were found for `O=C(CN1CCC(Cc2ccccc2)CC1)N1CCN(c2ccc(O)cc2)CC1` in this work.

An IC50 (Tyrosinase [1]) of 3.8 µM, an IC50 (Mushroom tyrosinase [4]) of 108 µM and a deltaG [2] of -14.8 kcal/mol were found for `CC(C)C(=O)Nc1nc(-c2ccc(O)cc2O)cs1` in this work. For the same compound, the deltaG [3] was 3.34 kcal/mol and the Ki (Tyrosinase [5]) was 0.92 µM.

An IC50 (Tyrosinase [1]) of 5.4 µM, an IC50 (Mushroom tyrosinase [6]) of 3.52 µM and a Ki (Tyrosinase [5]) of 1.02 µM were found for `COc1ccccc1C(=O)N1CCN(c2ccc(O)cc2)CC1` in this work. For the same compound, the inhibition [7] was “Active”.
